Key:
A549-BRM3 = assay: Cell viability assay (CellTiter-Glo, day 7); assay type: cell-based; conditions: 168 h; A549-BRM3, day 7
Description: (§1) CLL-119, Hela, HCT116, MCF7, Colo205, SW620, H2052, MSTO-211H, U-251, Colo 357, OE33, Huh-7, A549, BT474, A204 and H290 cells were acquired from UCSF Cell and Genome Engineering Core. A549-Brm3 and H2030-Brm3 were from UCSF thoracic oncology lab. All cells were plated (96-well) in triplicate at 500 cells per well for testing (n=3) with compound. Medium was changed once on day 3. On day 7, the CellTiter-Glo Luminescent Cell Viability Assay (Promega) was performed to measure the response. For cell viability assay, two independent experiments have been done.

Colo205 = assay: Cell viability assay (CellTiter-Glo, day 7); assay type: cell-based; conditions: Homo sapiens, COLO 205, 168 h; Colo205, day 7
Description: as §1

U-251 = assay: Cell viability assay (CellTiter-Glo, day 7); assay type: cell-based; conditions: Homo sapiens, 168 h; U-251, day 7
Description: as §1

Colo357 = assay: Cell viability assay (CellTiter-Glo, day 7); assay type: cell-based; conditions: Homo sapiens, 168 h; Colo357, day 7
Description: as §1

H2030-BRM3 = assay: Cell viability assay (CellTiter-Glo, day 7); assay type: cell-based; conditions: 168 h; H2030-BRM3, day 7
Description: as §1

MCF7 = assay: Cell viability assay (CellTiter-Glo, day 7); assay type: cell-based; conditions: Homo sapiens, 168 h; MCF7, day 7
Description: as §1

H2052 = assay: Cell viability assay (CellTiter-Glo, day 7); assay type: cell-based; conditions: Homo sapiens, NCI-H2052, 168 h; H2052, day 7
Description: as §1

CLL-119 = assay: Cell viability assay (CellTiter-Glo, day 7); assay type: cell-based; conditions: 168 h; CLL-119, day 7
Description: as §1

A204 = assay: Cell viability assay (CellTiter-Glo, day 7); assay type: cell-based; conditions: Homo sapiens, 168 h; A204, day 7
Description: as §1

SW620 = assay: Cell viability assay (CellTiter-Glo, day 7); assay type: cell-based; conditions: Homo sapiens, SW-620, 168 h; SW620, day 7
Description: as §1

Huh-7 = assay: Cell viability assay (CellTiter-Glo, day 7); assay type: cell-based; conditions: Homo sapiens, 168 h; Huh-7, day 7
Description: as §1

H290 = assay: Cell viability assay (CellTiter-Glo, day 7); assay type: cell-based; conditions: NCI-H290, 168 h; H290, day 7
Description: as §1

CDK19 (inactive) = CDK19 (inactive) (Homo sapiens (Human), UniProt Q9BWU1); assay: CDK19 (inactive) LanthaScreen Eu kinase binding assay; conditions: read-out: IC50 against CDK19
CDK19 (inactive), sequence (Q9BWU1 whole entry): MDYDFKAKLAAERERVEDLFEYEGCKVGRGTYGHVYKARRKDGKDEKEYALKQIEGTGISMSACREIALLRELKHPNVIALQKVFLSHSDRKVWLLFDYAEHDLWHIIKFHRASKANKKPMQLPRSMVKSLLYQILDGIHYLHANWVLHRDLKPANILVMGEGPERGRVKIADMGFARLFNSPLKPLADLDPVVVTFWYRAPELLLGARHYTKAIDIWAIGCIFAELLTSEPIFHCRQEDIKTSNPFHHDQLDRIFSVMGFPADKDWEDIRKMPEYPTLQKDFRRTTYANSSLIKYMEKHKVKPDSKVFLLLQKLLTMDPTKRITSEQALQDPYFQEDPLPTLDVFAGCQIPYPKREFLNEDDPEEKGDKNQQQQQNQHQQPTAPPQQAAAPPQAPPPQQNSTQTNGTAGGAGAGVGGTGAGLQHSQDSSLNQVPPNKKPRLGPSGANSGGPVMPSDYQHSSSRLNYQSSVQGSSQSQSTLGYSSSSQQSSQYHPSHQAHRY
Description: Compounds were screened in 1% DMSO (final) in the well. For 10 point titrations, 3-fold serial dilutions were conducted from the starting concentration.
The Bar-coded, low volume, white 384-well plate (Greiner Cat. #784207) were used for the assay. […] Then the Kinase Reaction was incubated at room temperature for 60 minutes. After the 1 hour Kinase Reaction incubation, the plate was read on a fluorescence plate reader (Infinite F500, Tecan Systems Inc, USA) and data was analyzed using XLfit from IDBS. The dose response curve was curve fit to model number 205 (sigmoidal dose-response model).

Q: How did the IC50 (A549-BRM3) turn out when `Nc1nccc2c(Br)cc3cc(C(=O)[O-])ccc3c12.[Na+]` [Compound 29, Sodium 1-amino-5-bromobenzo[h]isoquinoline-8-carboxylate] was run?
A: The IC50 was 1000 to 10000 nM.

Q: What about the IC50 (Colo205) of the same compound?
A: Its IC50 is less than 1000 nM.

Q: And the IC50 (U-251)?
A: The IC50 was 1000 to 10000 nM.

Q: What about the IC50 (Colo357) of the same compound?
A: The IC50 was 1000 to 10000 nM.

Q: And the IC50 (H2030-BRM3)?
A: Its IC50 is less than 1000 nM.

Q: And the IC50 (MCF7)?
A: Its IC50 is 1000 to 10000 nM.

Q: And the IC50 (H2052)?
A: Its IC50 is 1000 to 10000 nM.

Q: What about the IC50 (CLL-119) of the same compound?
A: Its IC50 is less than 1000 nM.

Q: And the IC50 (A204)?
A: Its IC50 is 1000 to 10000 nM.

Q: And the IC50 (SW620)?
A: Its IC50 is 1000 to 10000 nM.

Q: And the IC50 (Huh-7)?
A: Its IC50 is less than 1000 nM.

Q: What about the IC50 (H290) of the same compound?
A: Its IC50 is 1000 to 10000 nM.

Q: And the IC50 (CDK19 (inactive))?
A: The IC50 was less than 300 nM.
